The experiment has as its system CD2F1 mice, L1210 leukemia ip, survival T/C. Kind of experiment: NCI In Vivo Anticancer Drug Screen. Data for tumor model L1210 Leukemia (intraperitoneal) in CD2F1 (CDF1) mice. Particulars: higher = longer survival. An outline of the steps:
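Transplantable tumor in mice; compound-treated vs vehicle-treated groups. Read-out = treated/control ratio of the measured endpoint.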

Setting [1] is: endpoint: mean survival time, dose: 25.0 mg/kg/injection, schedule: Q01DX009 (ip), vehicle: saline with Tween-80.
[2] abbreviates: endpoint: mean survival time, dose: 50.0 mg/kg/injection, schedule: Q01DX009 (ip), vehicle: saline with Tween-80.
[3] abbreviates: endpoint: mean survival time, dose: 100.0 mg/kg/injection, schedule: Q04DX003 (ip), vehicle: saline with Tween-80.
Setting [4] is: endpoint: mean survival time, dose: 200.0 mg/kg/injection, schedule: Q04DX003 (ip), vehicle: saline with Tween-80.
Where [5] appears, read: endpoint: mean survival time, dose: 400.0 mg/kg/injection, schedule: Q04DX003 (ip), vehicle: saline with Tween-80.
[6] abbreviates: endpoint: mean survival time, dose: 100.0 mg/kg/injection, schedule: Q01DX001 (ip), vehicle: saline.
Where [7] appears, read: endpoint: mean survival time, dose: 100.0 mg/kg/injection, schedule: Q04DX003 (ip), vehicle: saline.
Where [8] appears, read: endpoint: mean survival time, dose: 200.0 mg/kg/injection, schedule: Q01DX001 (ip), vehicle: saline.
The mark [9] stands for this setting: endpoint: mean survival time, dose: 200.0 mg/kg/injection, schedule: Q04DX003 (ip), vehicle: saline.
Setting [10] is: endpoint: mean survival time, dose: 400.0 mg/kg/injection, schedule: Q01DX001 (ip), vehicle: saline.
Setting [11] is: endpoint: mean survival time, dose: 400.0 mg/kg/injection, schedule: Q04DX003 (ip), vehicle: saline.
Setting [12] is: endpoint: mean survival time, dose: 100.0 mg/kg/injection, schedule: Q01DX009 (ip), vehicle: saline with Tween-80.
[13] abbreviates: endpoint: mean survival time, dose: 200.0 mg/kg/injection, schedule: Q01DX009 (ip), vehicle: saline with Tween-80.
The mark [14] stands for this setting: endpoint: mean survival time, dose: 400.0 mg/kg/injection, schedule: Q01DX009 (ip), vehicle: saline with Tween-80.
The mark [15] stands for this setting: endpoint: mean survival time, dose: 100.0 mg/kg/injection, schedule: Q01DX009 (ip), vehicle: saline.
Setting [16] is: endpoint: mean survival time, dose: 200.0 mg/kg/injection, schedule: Q01DX009 (ip), vehicle: saline.
The mark [17] stands for this setting: endpoint: mean survival time, dose: 400.0 mg/kg/injection, schedule: Q01DX009 (ip), vehicle: saline.

Several values for one entry are separate records, joined by “and”; a condition that tells them apart may be missing. Equal entries are not always repeated. Toxic doses and inconclusive results are not listed.

We go through 23 compounds from PubChem BioAssay AID256 (DTP/NCI, 2004).

In the case of `C1=CC=CCC=C1`, the T/C was 92 % of control (endpoint: mean survival time, dose: 12.5 mg/kg/injection, schedule: Q01DX009 (ip), vehicle: saline with Tween-80); 92 % of control under setting [1]; 98 % of control under setting [2].
Take `CC1(O)CC2C=CC1CC2` (configuration not stated): the T/C by setting is: under setting [3], 101 % of control; under setting [4], 104 % of control; under setting [5], 95 % of control.
For `CC(=O)N(CC(C)C)N=O`, the T/C by setting is: under setting [6], 95 % of control; under setting [7], 102 % of control; under setting [8], 97 % of control; under setting [9], 97 % of control; under setting [10], 89 % of control; under setting [11], 94 % of control.
Consider `Cc1c(F)cccc1[N+](=O)[O-]`, for which the T/C is, setting by setting: under setting [2], 101 % of control; under setting [12], 104 % of control; under setting [13], 98 % of control.
Take `COC1(c2ccccc2)CN(Cc2ccccc2)CCO1` (configuration not stated): the T/C by setting is: under setting [3], 103 % of control; under setting [4], 100 % of control; under setting [5], 106 % of control.
As for `NC(CCSc1ccccc1)C(=O)O` (configuration not stated), the T/C was 104 % of control under setting [7], 102 % of control under setting [9] and 88 % of control under setting [11].
Take `c1cc2c3c(c1)nc(CCc1nc4cccc5c4n1CCC5)n3CCC2`: the T/C under setting [1] is 100 % of control, the T/C under setting [2] was 91 % of control and the T/C under setting [12] is 92 % of control.
With `CN(C)c1cc(C(C)(C)C)nc(C(C)(C)C)c1`, the T/C is 111 % of control (endpoint: mean survival time, dose: 12.5 mg/kg/injection, schedule: Q04DX002 (ip), vehicle: saline); 98 % of control (endpoint: mean survival time, dose: 25.0 mg/kg/injection, schedule: Q04DX002 (ip), vehicle: saline with Tween-80); 118 % of control (endpoint: mean survival time, dose: 25.0 mg/kg/injection, schedule: Q04DX002 (ip), vehicle: saline); 95 % of control (endpoint: mean survival time, dose: 50.0 mg/kg/injection, schedule: Q04DX002 (ip), vehicle: saline with Tween-80); 100 % of control (endpoint: mean survival time, dose: 50.0 mg/kg/injection, schedule: Q04DX002 (ip), vehicle: saline); 95 % of control (endpoint: mean survival time, dose: 100.0 mg/kg/injection, schedule: Q04DX002 (ip), vehicle: saline with Tween-80).
Take `Cc1cc(Cl)c2nc(-c3ccccc3)ccc2c1`: the T/C was 103 % of control under setting [12], 101 % of control under setting [13] and 97 % of control under setting [14].
As to `O=c1[nH]c2cc([N+](=O)[O-])ccc2c2ccccc12`, the T/C was 101 % of control (endpoint: mean survival time, dose: 50.0 mg/kg/injection, schedule: Q01DX001 (ip), vehicle: carboxymethylcellulose (CMC)); 98 % of control (endpoint: mean survival time, dose: 100.0 mg/kg/injection, schedule: Q01DX001 (ip), vehicle: carboxymethylcellulose (CMC)); 98 % of control (endpoint: mean survival time, dose: 200.0 mg/kg/injection, schedule: Q01DX001 (ip), vehicle: carboxymethylcellulose (CMC)); 98 % of control (endpoint: mean survival time, dose: 400.0 mg/kg/injection, schedule: Q01DX001 (ip), vehicle: carboxymethylcellulose (CMC)).
Take `N=Cc1c(O)n(C2CCCCC2)c(=O)[nH]c1=O`: the T/C was 98 % of control under setting [12]; 93 % of control under setting [3]; 94 % of control under setting [13]; 93 % of control under setting [4]; 98 % of control under setting [14]; 91 % of control under setting [5].
Turning to `CCOP(=O)(OCC)ON1C(=O)c2cccc3cccc(c23)C1=O`, the T/C runs as follows: (endpoint: mean survival time, dose: 3.12 mg/kg/injection, schedule: Q01DX009 (ip), vehicle: Klucel (hydroxypropylcellulose) (HPC)) 100 % of control; (endpoint: mean survival time, dose: 6.25 mg/kg/injection, schedule: Q01DX009 (ip), vehicle: Klucel (hydroxypropylcellulose) (HPC)) 95 % of control; (endpoint: mean survival time, dose: 12.5 mg/kg/injection, schedule: Q01DX009 (ip), vehicle: Klucel (hydroxypropylcellulose) (HPC)) 95 % of control; (endpoint: mean survival time, dose: 25.0 mg/kg/injection, schedule: Q01DX009 (ip), vehicle: Klucel (hydroxypropylcellulose) (HPC)) 93 % of control.
Take `CCOC(=O)CNC(=O)NC`: the T/C was 100 % of control under setting [15], 98 % of control under setting [16] and 100 % of control under setting [17].
With `CC(C)(C)N[P+](C)(NC(C)(C)C)c1ccccc1`, the T/C by setting is: (endpoint: mean survival time, dose: 3.13 mg/kg/injection, schedule: Q04DX003 (ip), vehicle: saline) 98 % of control; (endpoint: mean survival time, dose: 6.25 mg/kg/injection, schedule: Q04DX003 (ip), vehicle: saline) 103 % of control; (endpoint: mean survival time, dose: 12.5 mg/kg/injection, schedule: Q04DX003 (ip), vehicle: saline) 86 % of control and 95 % of control.
On to `O=C(O)CCC(=O)c1ccc([N+](=O)[O-])cc1`, for which the T/C under setting [6] was 101 % of control, the T/C under setting [8] was 97 % of control and the T/C under setting [10] was 97 % of control.
Consider `O=C1CN(c2ccccc2)C(=O)C1C(=O)Nc1ccc(Cl)c(Cl)c1` (configuration not stated), for which the T/C (endpoint: median survival time, dose: 25.9 mg/kg/injection, schedule: Q01DX005 (ip), vehicle: saline with Tween-80) is 104 % of control; the T/C (endpoint: median survival time, dose: 30.0 mg/kg/injection, schedule: Q01DX005 (ip), vehicle: saline with Tween-80) is 97 % of control; the T/C (endpoint: median survival time, dose: 43.0 mg/kg/injection, schedule: Q01DX005 (ip), vehicle: saline with Tween-80) was 101 % of control and 104 % of control; the T/C (endpoint: median survival time, dose: 43.2 mg/kg/injection, schedule: Q01DX005 (ip), vehicle: saline with Tween-80) was 98 % of control and 104 % of control; the T/C (endpoint: median survival time, dose: 60.0 mg/kg/injection, schedule: Q01DX005 (ip), vehicle: saline with Tween-80) is 102 % of control.
With `Cn1c(=O)c2c(ncn2CCCNCC(O)c2ccc(O)c(CO)c2)n(C)c1=O` (configuration not stated), the T/C is 96 % of control (endpoint: mean survival time, dose: 12.5 mg/kg/injection, schedule: Q01DX005 (ip), vehicle: water); 96 % of control (endpoint: mean survival time, dose: 25.0 mg/kg/injection, schedule: Q01DX005 (ip), vehicle: water); 100 % of control (endpoint: mean survival time, dose: 50.0 mg/kg/injection, schedule: Q01DX005 (ip), vehicle: water); 96 % of control (endpoint: mean survival time, dose: 100.0 mg/kg/injection, schedule: Q01DX005 (ip), vehicle: water); 98 % of control (endpoint: mean survival time, dose: 200.0 mg/kg/injection, schedule: Q01DX005 (ip), vehicle: water).
Consider `COC(=O)C1C2CCC(C2)C1C(=O)O` (configuration not stated), for which the T/C under setting [15] is 96 % of control, the T/C under setting [16] is 96 % of control and the T/C under setting [17] was 94 % of control.
For `Cc1ccc(-c2cc(-c3ccccc3)n(-c3ccccc3)n2)cc1`, the T/C is, setting by setting: under setting [3], 101 % of control; under setting [4], 100 % of control; under setting [5], 95 % of control.
Consider `CCNc1ncnc2c1c(C(N)=S)cn2C1OC(CO)C(O)C1O` (configuration not stated), for which the T/C by setting is: (endpoint: mean survival time, dose: 6.25 mg/kg/injection, schedule: Q01DX009 (ip), vehicle: saline) 116 % of control; (endpoint: mean survival time, dose: 12.5 mg/kg/injection, schedule: Q01DX009 (ip), vehicle: saline) 116 % of control; (endpoint: mean survival time, dose: 25.0 mg/kg/injection, schedule: Q01DX009 (ip), vehicle: saline) 150 % of control.
`CCC[CH2][Sn]1([CH2]CCC)[O]OC2(CCCCC2)[O]1`: the T/C (endpoint: mean survival time, dose: 1.25 mg/kg/injection, schedule: Q01DX009 (ip), vehicle: saline with Tween-80) was 105 % of control; the T/C (endpoint: mean survival time, dose: 2.5 mg/kg/injection, schedule: Q01DX009 (ip), vehicle: saline with Tween-80) is 105 % of control; the T/C (endpoint: mean survival time, dose: 5.0 mg/kg/injection, schedule: Q01DX009 (ip), vehicle: saline with Tween-80) was 105 % of control.
Consider `CCC[CH2][Pb]([Cl])([CH2]CCC)[CH2]CCC`, for which the T/C (endpoint: mean survival time, dose: 1.5 mg/kg/injection, schedule: Q01DX009 (ip), vehicle: saline with Tween-80) was 96 % of control; the T/C (endpoint: mean survival time, dose: 3.0 mg/kg/injection, schedule: Q01DX009 (ip), vehicle: saline with Tween-80) is 96 % of control; the T/C (endpoint: mean survival time, dose: 6.0 mg/kg/injection, schedule: Q01DX009 (ip), vehicle: saline with Tween-80) was 93 % of control; the T/C (endpoint: mean survival time, dose: 6.25 mg/kg/injection, schedule: Q04DX003 (ip), vehicle: saline with Tween-80) was 93 % of control; the T/C (endpoint: mean survival time, dose: 12.5 mg/kg/injection, schedule: Q04DX003 (ip), vehicle: saline with Tween-80) is 87 % of control; the T/C (endpoint: mean survival time, dose: 25.0 mg/kg/injection, schedule: Q04DX003 (ip), vehicle: saline with Tween-80) is 93 % of control.
For the compound `CC(C)(CCC(=O)c1ccccc1)C(=O)O`, the T/C is 90 % of control under setting [3], 94 % of control under setting [4] and 87 % of control under setting [5].
